The structures appear in SMILES notation. Marks after values point to notes of the source that are not given here.

For one data set the following is noted: method [a]: pH 2.7, 0.1% formic acid in water/acetonitrile; Table 1, formula (I).
`OC(Cc1ccc2ccccc2n1)(Cn1ncnc1S)C1(Cl)CC1` (stereo not shown) [Example I-7]: the LogP is 1.60^[a].

Turning to `OC(Cc1cc(Cl)nc(Cl)c1)(Cn1ncnc1S)C1(Cl)CC1` (stereo not shown) [Example I-8], the LogP was 3.10^[a].

The data set is the same for the next values; noted with them: method [a]: pH 2.7; Table 3, formula (V).
In turn, `O=C(Cc1ccc(Cl)nc1)C1(Cl)CC1` [Example V-6] returned a LogP of 2.34.

`CC(C)(C)C(=O)Cc1ncc(Cl)cc1Cl` [Example V-13]: the LogP is 3.33^[a].

In the case of `CC(C)(C)C(=O)Cc1cnc2ccccc2c1` [Example V-14], the LogP was 1.60^[a].

`CC(C)(C)C(=O)Cc1ccc(Cl)nc1` [Example V-15]: the LogP is 2.47^[a].

As for `CC(C)(C)C(=O)Cc1cccnc1Cl` [Example V-16], the LogP was 2.34^[a].

`CCC(C)(CC)C(=O)Cc1ccncc1Cl` [Example V-17]: the log partition coefficient (LogP) is 3.04^[a].

On to `CC(C)C(C)(C)C(=O)Cc1ccncc1Cl` [Example V-18], for which the LogP is 3.00^[a].

`CC(C)(C)C(=O)Cc1cccnc1` [Example V-19] showed a LogP of 0.41.

On to `CC(C)(C)C(=O)Cc1ccncc1` [Example V-20], for which the LogP was determined as 0.35. This LogP and that of the compound before are within 0.2 log units of each other.

Staying with this data set, now noted: method [b]: pH 7.8; Table 3, formula (V).
In the case of `O=C(Cc1ccc(Cl)nc1)C1(Cl)CC1` [Example V-6], the LogP was found to be 2.30.

Compound `CC(C)(C)C(=O)Cc1cccnc1` [Example V-19] showed a LogP of 1.71.

In turn, `CC(C)(C)C(=O)Cc1ccncc1` [Example V-20] returned a log partition coefficient (LogP) of 1.75. The LogP values of the last two compounds are within 0.2 log units of each other.

The data set is the same for the next values; noted with them: pH 2.7.
Regarding `CC(CF)(CF)C(O)(Cc1ccnc(Cl)c1)Cn1cncn1` (racemic) [XXI-41], the LogP is 1.66^[a].

For `OC(Cc1cccc(Cl)c1)(Cc1ccnc(Cl)c1)Cn1cncn1` (racemic) [XXI-42], the LogP was 2.42^[a].

For the compound `OC(Cc1ccnc(Cl)c1)(Cn1cncn1)c1ccc(Cl)nc1` (racemic) [XXI-43], the LogP is 1.38^[a].

Turning to `OC(Cc1ccnc(Cl)c1)(Cn1cncn1)C1(Cl)CC1` (racemic) [XXI-44], the log partition coefficient (LogP) was 1.76^[a].

For the compound `OC(Cc1cc(Cl)ncc1F)(Cn1cncn1)C1(Cl)CC1` (racemic) [XXI-45], the lipophilicity (LogP) was 2.06^[a].

As to `OC(Cc1cc(Cl)ncc1F)(Cn1cncn1)C1(F)CC1` (racemic) [XXI-46], the LogP was 1.66^[a].

As for `OC(Cc1cc(Cl)ncc1F)(Cn1cncn1)c1ccc(Cl)nc1` (racemic) [XXI-47], the log partition coefficient (LogP) is 1.60^[a].

Regarding `OC(Cc1cc(Cl)ncc1F)(Cn1cncn1)c1cccnc1Cl` (racemic) [XXI-48], the LogP was 1.57^[a].

Consider `CC(CF)(CF)C(O)(Cc1cc(Cl)ncc1F)Cn1cncn1` (racemic) [XXI-49], for which the LogP is 1.89^[a].

Turning to `OC(Cc1ccnnc1Cl)(Cn1cncn1)C1(Cl)CC1` (racemic) [XXI-50], the LogP was 1.31^[a].

In the case of `OC(Cc1cc(Cl)nnc1Cl)(Cn1cncn1)C1(Cl)CC1` (racemic) [XXI-51], the LogP is 1.92^[a].

`OC(Cc1cc(Cl)ccn1)(Cn1cncn1)C1(Cl)CC1` (racemic) [XXI-52]: the log partition coefficient (LogP) was 2.02^[a].

For the compound `Cc1cccc(CC(O)(Cn2cncn2)C2(Cl)CC2)n1` (racemic) [XXI-53], the log partition coefficient (LogP) is 0.52^[a].

`CC1(C(O)(Cc2ccncc2Cl)Cn2cncn2)CC1` (racemic) [XXI-54]: the LogP was 1.57^[a].

As for `OC(Cc1ccncn1)(Cn1cncn1)C1(Cl)CC1` (racemic) [XXI-55], the LogP was 1.10^[a].

Take `OC(Cc1cccnc1F)(Cn1cncn1)C1(Cl)CC1` (racemic) [XXI-56]: the LogP is 1.64^[a].

`Cc1ccnc(CC(O)(Cn2cncn2)C2(Cl)CC2)c1` (racemic) [XXI-57]: the LogP is 0.52^[a].

As for `OC(Cc1ccc(Cl)nc1Cl)(Cn1cncn1)C1(Cl)CC1` (racemic) [XXI-58], the LogP was 2.55^[a].

With `OC(Cc1nccnc1I)(Cn1cncn1)C1(Cl)CC1` (racemic) [XXI-59], the LogP is 2.07^[a].

For the compound `OC(Cc1cc(Oc2ccc(Cl)cc2)nnc1Cl)(Cn1cncn1)C1(Cl)CC1` (racemic) [XXI-60], the LogP is 3.08^[a].

In the case of `OC(Cc1cncc(Oc2ccc(Cl)cc2)n1)(Cn1cncn1)C1(Cl)CC1` (racemic) [XXI-61], the LogP is 2.88^[a].

`OC(Cc1ncnc(Cl)c1Cl)(Cn1cncn1)C1(Cl)CC1` (racemic) [XXI-62]: the log partition coefficient (LogP) is 2.28^[a].

For the compound `OC(Cc1cc(Cl)ncc1Cl)(Cn1cncn1)C1(Cl)CC1` (racemic) [XXI-63], the LogP was 2.53^[a].

As to `OC(Cc1ccnc(Cl)c1F)(Cn1cncn1)c1cccnc1Cl` (racemic) [XXI-64], the LogP is 1.54^[a].

For the compound `OC(Cc1ccnc(Cl)c1F)(Cn1cncn1)C1(Cl)CC1` (racemic) [XXI-65], the lipophilicity (LogP) is 2.02^[a].

Take `CC(CF)(CF)C(O)(Cc1ccnc(Cl)c1F)Cn1cncn1` (racemic) [XXI-66]: the LogP is 1.87^[a].

Turning to `OC(Cc1nc(Cl)ccc1Cl)(Cn1cncn1)C1(Cl)CC1` (racemic) [XXI-101], the LogP was 2.73^[a].

Consider `OC(Cc1ncc(Cl)cc1Cl)(Cn1cncn1)C1(Cl)CC1` (racemic) [XXI-102], for which the LogP is 2.88^[a].

`CC(C)(C)C(O)(Cc1ccncc1F)Cn1cncn1` (racemic) [XXI-103]: the LogP was 1.41^[a].

Regarding `CCC(C)(C)C(O)(Cc1ccncc1F)Cn1cncn1` (racemic) [XXI-104], the LogP was 1.73^[a].

Turning to `CC(C)(C)C(O)(Cc1ccc2ccccc2n1)Cn1cncn1` (racemic) [XXI-105], the log partition coefficient (LogP) is 1.51^[a].

In the case of `CC(C)(C)C(O)(Cc1cc(Cl)nc(Cl)c1)Cn1cncn1` (racemic) [XXI-106], the LogP is 2.64^[a].

Take `CC(C)(C)C(O)(Cc1ccnc2ccccc12)Cn1cncn1` (racemic) [XXI-107]: the LogP was 1.17^[a].

For `CC(C)(C)C(O)(Cc1cc(Cl)cc(Cl)n1)Cn1cncn1` (racemic) [XXI-108], the LogP is 2.86^[a].

Consider `CC(C)(C)C(O)(Cc1ccc(Cl)c(Cl)n1)Cn1cncn1` (racemic) [XXI-109], for which the LogP is 2.78^[a].

With `CC(C)(C)C(O)(Cc1cccc(Cl)n1)Cn1cncn1` (racemic) [XXI-110], the LogP is 2.30^[a].

`CCC(C)(C)C(O)(Cc1ccnc(Cl)c1)Cn1cncn1` (racemic) [XXI-111]: the LogP is 2.27^[a].

On to `CC(C)(C)C(O)(Cc1ccnc(Cl)c1)Cn1cncn1` (racemic) [XXI-112], for which the LogP was 1.93^[a].

As to `CC(C)(C)C(O)(Cc1cc(Cl)ncc1F)Cn1cncn1` (racemic) [XXI-113], the LogP is 2.16^[a].

On to `CC(C)(C)C(O)(Cc1nccnc1Cl)Cn1cncn1` (racemic) [XXI-115], for which the lipophilicity (LogP) was 2.01^[a].

Turning to `Cc1ncc(CC(O)(Cn2cncn2)C(C)(C)C)nc1Cl` (racemic) [XXI-116], the LogP is 2.10^[a].

For the compound `CC(C)(C)C(O)(Cc1cnccn1)Cn1cncn1` (racemic) [XXI-118], the LogP is 1.39^[a].

`CC(C)(C)C(O)(Cc1cc(Cl)ccn1)Cn1cncn1` (racemic) [XXI-119]: the lipophilicity (LogP) is 1.87^[a].

For `Cc1cccc(CC(O)(Cn2cncn2)C(C)(C)C)n1` (racemic) [XXI-120], the LogP was 0.63^[a].

Take `CCOC(=O)OC(Cc1cccnc1Cl)(Cn1cncn1)C(C)(C)C` (racemic) [XXI-121]: the LogP was 2.67^[a].

With `COC(C)(C)C(O)(Cc1ccncc1Cl)Cn1cncn1` (racemic) [XXI-123], the log partition coefficient (LogP) is 1.48^[a].

As to `CC(C)(C)C(O)(Cc1ccnc(Cl)c1F)Cn1cncn1` (racemic) [XXI-124], the LogP was 2.16^[a].

For `CC(C)(C)C(O)(Cc1c(Cl)cncc1Cl)Cn1cncn1` (racemic) [XXI-125], the LogP was 2.34^[a].

Consider `CC(C)(C)C(O)(Cc1cc(F)ncc1Cl)Cn1cncn1` (racemic) [XXI-126], for which the LogP was 2.39^[a].

Take `OC(Cc1ccncc1Cl)(CC1CC1)Cn1cncn1` (racemic) [XXI-127]: the LogP is 1.43^[a].

As to `CC(C)CCC(O)(Cc1ccncc1Cl)Cn1cncn1` (racemic) [XXI-128], the LogP is 2.00^[a].

Turning to `CCOC(C)(C)C(O)(Cc1ccncc1Cl)Cn1cncn1` (racemic) [XXI-129], the lipophilicity (LogP) is 1.90^[a].

On to `CC(C)(C)C(O)(Cc1nc(Cl)ccc1Cl)Cn1cncn1` (racemic) [XXI-130], for which the LogP was 2.82^[a].

As for `CC(C)(C)C(O)(Cc1cccnc1Cl)Cn1ncnc1S` (stereo not shown) [Example I-1], the LogP was 2.31^[a].

As for `CC(C)(C)C(O)(Cc1ccncc1Cl)Cn1ncnc1S` (stereo not shown) [Example I-2], the LogP is 2.14^[a].

Regarding `OC(Cc1cccnc1Cl)(Cn1ncnc1S)C1(Cl)CC1` (stereo not shown) [Example I-4], the LogP was 2.15^[a].

For `CC(C)(C)C(O)(Cc1cnc2ccccc2c1)Cn1ncnc1S` (stereo not shown) [Example I-5], the LogP was 1.58^[a].

On to `CCCCc1nc2ccccc2cc1CC(O)(Cn1ncnc1S)C(C)(C)C` (stereo not shown) [Example I-6], for which the LogP was 1.88^[a].

On to `CC(C)(C)C(O)(Cc1ccnc2ccccc12)Cn1ncnc1S` (stereo not shown) [Example I-9], for which the LogP was 1.59^[a].

With `CC(C)(C)C(O)(Cc1cc(Cl)cc(Cl)n1)Cn1ncnc1S` (stereo not shown) [Example I-10], the log partition coefficient (LogP) is 3.07^[a].

As for `OC(Cc1ccnc2ccccc12)(Cn1ncnc1S)C1(Cl)CC1` (stereo not shown) [Example I-12], the LogP was 1.37^[a].

Consider `CC(C)(C)C(O)(Cc1ccc(Cl)c(Cl)n1)Cn1ncnc1S` (stereo not shown) [Example I-14], for which the LogP is 3.00^[a].

With `CC1(C(O)(Cc2cccnc2Cl)Cn2ncnc2S)CC1` (stereo not shown) [Example I-15], the LogP was 2.14^[a].

For the compound `CC1(C(O)(Cc2ccncc2Cl)Cn2ncnc2S)CC1` (stereo not shown) [Example I-16], the LogP was 1.96^[a].

Turning to `CC(C)(C)C(O)(Cc1ccncc1F)Cn1ncnc1S` (stereo not shown) [Example I-18], the LogP was 1.79^[a].

As to `OC(Cc1ccncc1F)(Cn1ncnc1S)C1(Cl)CC1` (stereo not shown) [Example I-19], the lipophilicity (LogP) is 1.65^[a].

As to `CCC(C)(C)C(O)(Cc1ccncc1Cl)Cn1ncnc1S` (stereo not shown) [Example I-20], the LogP was 2.50^[a].

On to `OC(Cc1ccncc1F)(Cn1ncnc1S)C1(F)CC1` (stereo not shown) [Example I-21], for which the lipophilicity (LogP) is 1.29^[a].

As to `CC(CF)(CF)C(O)(Cc1ccncc1F)Cn1ncnc1S` (stereo not shown) [Example I-22], the LogP was 1.58^[a].

The data set is the same for the next values; noted with them: pH 7.8.
With `CCOC(=O)OC(Cc1cccnc1Cl)(Cn1cncn1)C(C)(C)C` (racemic) [XXI-121], the LogP was 2.56^[b];.

For the compound `CCOC(C)(C)C(O)(Cc1ccncc1Cl)Cn1cncn1` (racemic) [XXI-129], the LogP was 2.04^[b];.

One may read the LogP as a log measure of how a compound divides between an organic and an aqueous phase. The low end stands for a more hydrophilic compound, the high end for a more lipophilic compound.

The values are drawn from US9550752B2, “Triazolinthione derivatives” (priority 2013, dated 2017).
